Earlier results as cited in patent US9725402B2, “Nitroso compounds as nitroxyl donors and methods of use thereof” (priority 2008, dated 2017).

Tests used:
[1] = tested on: cultured breast cancer cells
pheochromocytoma = details: subcutaneous xenograft, dose nontoxic to nude mice
[2] = tested on: myocardial ischemia/reperfusion injury; details: administered during ischemia and 5 minutes prior to reperfusion, anesthetized rabbits
breast cancer cells = details: mouse xenograft model

Structure (SMILES)	proliferation of cultured breast cancer cells [1]	toxicity to cancer cells (cancer cells; pH 7.4)	cytotoxicity to cancer cells (cancer cells; weakly acidic solutions)	tumor growth (pheochromocytoma)	myocardial ischemia/reperfusion injury [2]	tumor mass (breast cancer cells)	pH at which compound is a nitroxyl donor (nitroxyl donor only at high pH)	species donated under physiological conditions (physiological conditions, oxidative pathway)
[Na+].[Na+].[O-][N+]([O-])=NO [Angeli's salt, sodium α-oxyhyponitrite]	inhibits the proliferation	no toxicity	strong cytotoxicity	inhibit tumor growth	increased myocardial ischemia/reperfusion injury	decreases tumor mass	–	–
O=S(=O)(NO)c1ccccc1 [PA, N-hydroxybenzenesulfonamide]	–	–	–	–	–	–	> 9	nitric oxide donor
